Data from paper PMC7052197 (Scientific Reports, 2020).
Ends that are not written are not given here.

Assays:
αBgt = αBgt (Bungarus multicinctus, UniProt P60615); experiment: biochemical; format: binding
αCtx = αCtx (Naja kaouthia, UniProt P01391); experiment: biochemical; format: binding
αCtx, sequence (P01391 whole entry, looked up): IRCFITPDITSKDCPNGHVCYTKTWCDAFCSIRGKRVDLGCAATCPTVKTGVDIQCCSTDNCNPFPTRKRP

αBgt, sequence (P60615 22-95 limits assumed): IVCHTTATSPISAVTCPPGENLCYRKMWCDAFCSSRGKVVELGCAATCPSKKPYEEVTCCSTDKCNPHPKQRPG

Sequence	Kd (αBgt) [nM]	Kd (αCtx) [nM]
WRYYESSLLPYPD [HAP]	29 ± 8	> 10000
WRYYESSLEPYPD [HAP[L9E]]	91 ± 33	7000 ± 1000
